# Reference: patent publication US9096591B2, “Tetracyclic compounds” (Medivation Technologies, Inc., priority 2007, dated 2015)
# Columns and labels:
# Conditions in all cases: percent inhibition of specific binding
# [1] = molecular target: T1, human recombinant adrenergic α2A receptor (Homo sapiens, UniProt P08913); assay: Adrenergic α2A radioligand binding ([3H]MK-912); parameters: Inhibition of ligand binding, Adren. alpha2A: concentration or dose not given beside the values
# T1 construct: expressed in transfected cells; host or cells: insect Sf9 cells
# T1 sequence (P08913 1-465): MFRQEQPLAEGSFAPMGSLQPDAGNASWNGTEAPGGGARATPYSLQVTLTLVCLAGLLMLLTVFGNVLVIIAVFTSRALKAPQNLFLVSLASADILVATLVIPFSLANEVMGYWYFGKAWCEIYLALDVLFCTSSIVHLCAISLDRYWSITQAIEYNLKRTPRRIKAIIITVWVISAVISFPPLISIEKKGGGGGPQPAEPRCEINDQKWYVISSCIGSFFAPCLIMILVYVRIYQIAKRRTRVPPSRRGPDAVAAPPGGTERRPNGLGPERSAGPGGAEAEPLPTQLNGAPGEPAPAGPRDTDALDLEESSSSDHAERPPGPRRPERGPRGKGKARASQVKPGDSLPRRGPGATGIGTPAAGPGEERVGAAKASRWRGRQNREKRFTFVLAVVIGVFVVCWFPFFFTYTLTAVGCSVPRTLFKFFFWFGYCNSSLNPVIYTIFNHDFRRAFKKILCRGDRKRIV
# Procedure, shortened: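 Membranes from Sf9 cells expressing the receptor were incubated with 1 nM [3H]MK-912 for 60 minutes at 25° C in 50 mM Tris-HCl pH 7.4, 12.5 mM MgCl2, 2 mM EDTA. 10 μM WB-4101 defined non-specific binding. Values are percent inhibition of specific bound radioactivity after filtration.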
# [2] = molecular target: T2, human recombinant serotonin (5-Hydroxytryptamine) 5-HT2C receptor (Homo sapiens, UniProt P28335); assay: Serotonin 5-HT2C radioligand binding ([3H]Mesulergine); parameters: Inhibition of ligand binding, Ser. 5-HT2C: concentration or dose not given beside the values
# T2 construct: expressed in transfected cells; host or cells: CHO-K1 cells
# T2 sequence (P28335 33-458): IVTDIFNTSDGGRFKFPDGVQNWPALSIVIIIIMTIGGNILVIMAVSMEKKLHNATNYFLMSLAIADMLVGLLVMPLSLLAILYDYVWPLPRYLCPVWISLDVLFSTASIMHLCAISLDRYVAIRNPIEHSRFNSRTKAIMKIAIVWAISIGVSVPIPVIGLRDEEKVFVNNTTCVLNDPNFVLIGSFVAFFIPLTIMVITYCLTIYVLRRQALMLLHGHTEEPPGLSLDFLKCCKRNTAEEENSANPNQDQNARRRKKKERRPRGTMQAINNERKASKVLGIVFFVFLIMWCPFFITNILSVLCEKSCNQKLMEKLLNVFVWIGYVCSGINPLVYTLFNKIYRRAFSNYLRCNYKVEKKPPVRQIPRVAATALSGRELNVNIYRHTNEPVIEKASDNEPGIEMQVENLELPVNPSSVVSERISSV
# Protocol: Compounds of the invention were incubated with 1 nM [^3H]Mesulergine for 60 minutes at 25° C. Non-specific binding was estimated in the presence of 1 μM Mianserin. Receptor proteins were filtered and washed, the filters were then counted to determine [^3H]Mesulergine specifically bound. […] Biochemical assay results are presented as the percent inhibition of specific binding in Table 6.
# [3] = molecular target: T3, human recombinant serotonin (5-Hydroxytryptamine) 5-HT6 receptor (Homo sapiens, UniProt P50406); assay: Serotonin 5-HT6 radioligand binding ([3H]LSD); parameters: Inhibition of ligand binding, Ser. 5-HT6: concentration or dose not given beside the values
# T3 construct: expressed in transfected cells; host or cells: human HeLa cells
# T3 sequence (P50406 whole entry): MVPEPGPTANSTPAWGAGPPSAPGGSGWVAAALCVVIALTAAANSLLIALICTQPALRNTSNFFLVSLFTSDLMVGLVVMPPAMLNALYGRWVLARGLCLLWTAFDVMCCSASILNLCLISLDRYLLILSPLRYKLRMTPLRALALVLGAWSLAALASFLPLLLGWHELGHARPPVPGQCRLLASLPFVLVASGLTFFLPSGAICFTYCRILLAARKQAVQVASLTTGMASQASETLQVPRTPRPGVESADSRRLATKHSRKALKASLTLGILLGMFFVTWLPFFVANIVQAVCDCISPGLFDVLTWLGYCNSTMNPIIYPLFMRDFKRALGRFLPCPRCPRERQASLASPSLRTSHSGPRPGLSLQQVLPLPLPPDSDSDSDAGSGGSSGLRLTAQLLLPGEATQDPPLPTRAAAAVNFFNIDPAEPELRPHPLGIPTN
# Excerpt: Receptor proteins were filtered and washed, the filters were then counted to determine [3H]LSD specifically bound. […] Biochemical assay results are presented as the percent inhibition of specific binding in Table 6.
# [4] = molecular target: T4, Serotonin (5-Hydroxytryptamine) 5-HT7 (Homo sapiens, UniProt P34969); assay: Serotonin 5-HT7 radioligand binding ([3H]LSD); parameters: Inhibition of ligand binding, Ser. 5-HT7: concentration or dose not given beside the values
# T4 construct: expressed in transfected cells; host or cells: CHO cells
# T4 sequence (P34969 whole entry): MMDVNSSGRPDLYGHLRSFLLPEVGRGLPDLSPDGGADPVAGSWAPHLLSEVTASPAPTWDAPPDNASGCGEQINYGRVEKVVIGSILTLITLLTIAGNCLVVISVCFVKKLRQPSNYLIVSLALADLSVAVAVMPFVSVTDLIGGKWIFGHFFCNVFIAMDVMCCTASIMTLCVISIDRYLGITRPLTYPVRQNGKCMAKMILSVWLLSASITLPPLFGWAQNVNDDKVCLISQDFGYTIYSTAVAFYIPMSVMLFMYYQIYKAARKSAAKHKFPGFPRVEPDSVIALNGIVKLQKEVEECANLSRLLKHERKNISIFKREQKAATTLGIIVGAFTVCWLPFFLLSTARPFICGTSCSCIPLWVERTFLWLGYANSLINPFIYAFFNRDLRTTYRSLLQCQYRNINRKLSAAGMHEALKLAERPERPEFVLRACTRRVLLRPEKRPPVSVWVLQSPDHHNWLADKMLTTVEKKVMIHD
# Protocol: Lysergic acid diethylamide (LSD) for 2 hours at 25° C. […] Receptor proteins were filtered and washed, the filters were then counted to determine [^3H]LSD specifically bound. […] Biochemical assay results are presented as the percent inhibition of specific binding in Table 6.
SMILES,"Inhibition of ligand binding, Adren. alpha2A [1] [%]","Inhibition of ligand binding, Ser. 5-HT2C [2] [%]","Inhibition of ligand binding, Ser. 5-HT6 [3] [%]","Inhibition of ligand binding, Ser. 5-HT7 [4] [%]"
"Cc1ccc2c(c1)c1c(n2CCc2ccccc2)CCN(C(=O)OCC(Cl)(Cl)Cl)C1 [Compound 227, 2,2,2-trichloroethyl 3,4-dihydro-8-methyl-5-phenethyl-1H-pyrido[4,3-b]indole-2(5H)-carboxylate]",0,4,9,−8
"CN1CCc2c(c3cc(C(F)(F)F)ccc3n2CCc2ccccc2)C1 [Compound 80, 8-(trifluoromethyl)-2,3,4,5-tetrahydro-2-methyl-5-phenethyl-1H-pyrido[4,3-b]indole]",98,90,101,92
CN1CCc2c(c3c(Cl)cccc3n2CCc2ccccc2)C1 [Compound 81],96,98,86,89
"Cc1ccc2c(c1)c1c(n2CCC(=O)N2CCC(NC(=O)OC(C)(C)C)CC2)CCN(C)C1 [Compound 393, tert-butyl 1-(3-(1,2,3,4-tetrahydro-2,8-dimethylpyrido[4,3-b]indol-5-yl)propanoyl)piperidin-4-ylcarbamate]",98,26,3,8
Cc1ccc2c(c1)c1c(n2CCc2ccc(C)nc2)CCN(C)C1=O [Compound 216],15,−11,−8,18
Cc1ccc2c(c1)c1c(n2CCc2ccc(C(=O)O)nc2)CCNC1 [Compound 262],8,6,−4,6
"CN1CCc2c(c3ccc(Cl)cc3n2CCC2CCCCC2)C1 [Compound 188, 7-chloro-5-(2-cyclohexylethyl)-2,3,4,5-tetrahydro-2-methyl-1H-pyrido[4,3-b]indole]",80,66,67,41
"Cc1ccc2c(c1)c1c(n2CCc2ccccc2)CCNC1 [Compound 228, 2,3,4,5-tetrahydro-8-methyl-5-phenethyl-1H-pyrido[4,3-b]indole]",87,82,89,95
CN1CCc2c(c3cc(F)ccc3n2CCc2ccc(F)cc2)C1 [Compound 253],93,93,105,87
CN1CCc2c(c3ccc(Cl)cc3n2CCc2ccccc2)C1 [Compound 82],99,95,103,100
Cc1ccc(CCn2c3c(c4cc(C(F)(F)F)ccc42)CN(C)CC3)cn1 [Compound 53],18,12,18,49
"CN1CCc2c(c3c(Cl)cccc3n2CCC2CCCCC2)C1 [Compound 187, 9-chloro-5-(2-cyclohexylethyl)-2,3,4,5-tetrahydro-2-methyl-1H-pyrido[4,3-b]indole]",90,77,53,77
"CN1CCc2c(c3cc(Cl)ccc3n2CCN2CCOCC2)C1 [Compound 186, 8-chloro-2,3,4,5-tetrahydro-2-methyl-5-(2-morpholinoethyl)-1H-pyrido[4,3-b]indole]",51,89,83,57
Cc1ccc2c(c1)c1c(n2CCc2ccc(C)nc2)CCN(C2CC2)C1 [Compound 51],26,2,6,17
CC(Cn1c2c(c3ccccc31)CN(C)CC2)c1ccc(F)cc1 (stereo not shown) [Compound 455],93,97,99,98
"Cc1ccc2c(c1)c1c(n2CC(=O)N2CCCCC2)CCN(C)C1 [Compound 395, 2-(1,2,3,4-tetrahydro-2,8-dimethylpyrido[4,3-b]indol-5-yl)-1-(piperidin-1-yl)ethanone]",4,50,0,24
"Cc1ccc2c(c1)c1c(n2CCc2ccc(C)[n+]([O-])c2)CCN(C)C1 [Compound 394, 5-(2-(2,8-dimethyl-3,4-dihydro-1H-pyrido[4,3-b]indol-5(2H)-yl)ethyl)-2-methylpyridine 1-oxide]",15,−8,5,7
"Cc1ccc2c(c1)c1c(n2CCc2ccccc2)CC(O)N(C)C1=O (stereo not shown) [Compound 215, 3,4-dihydro-3-hydroxy-2,8-dimethyl-5-phenethyl-2H-pyrido[4,3-b]indol-1(5H)-one]",23,2,8,10
"Cc1ccc2c(c1)c1c(n2CCN2CCCCC2)CCN(C)C1 [Compound 224, 2,3,4,5-tetrahydro-2,8-dimethyl-5-(2-(piperidin-1-yl)ethyl)-1H-pyrido[4,3-b]indole]",57,74,43,61
